According to patent US20240158446A1, “CYCLIC COMPOUND HAVING SELECTIVE INHIBITORY ACTION ON KRAS OVER HRAS AND NRAS” (CHUGAI SEIYAKU KABUSHIKI KAISHA, priority 2021, published 2024):
Where a SMILES comes first, the peptide text is derived from it. Bridges are numbered along the chain shown (N, C = ends). [ ]: non-standard residue; d: D form. The star is where a group is joined. hPhe(3-Cl-4-CF3) = N[C@@H](CCc1ccc(C(F)(F)F)c(Cl)c1)C(=O)O; NPrPhe(4-CF3) = CCCN[C@@H](Cc1ccc(C(F)(F)F)cc1)C(=O)O; Pip(4,4-F2) = O=C(O)[C@@H]1CC(F)(F)CCN1; NMeGly(cPent) = CN[C@H](C(=O)O)C1CCCC1; Hyp = O=C(O)[C@@H]1C[C@@H](O)CN1; Gly(cBu) = N[C@H](C(=O)O)C1CCC1; NMeD = CN[C@@H](CC(=O)O)C(=O)O; NMeL = CN[C@@H](CC(C)C)C(=O)O; Pip = O=C(O)[C@@H]1CCCCN1; Morpholide = C1CN(*)CCO1; Ac5c = NC1(C(=O)O)CCCC1; Aze = O=C(O)[C@@H]1CCN1; Ac4c = NC1(C(=O)O)CCC1; NPrGly = CCCNCC(=O)O; NEtG = CCNCC(=O)O; Sar = CNCC(=O)O

Assays:
[1] = target: GDP-bound KRAS wild-type protein (Homo sapiens, UniProt P01116); assay: Binding to KRAS by surface plasmon resonance (SPR), Single Cycle Kinetics; settings: SPR Single Cycle Kinetics, GDP-bound KRAS wild-type protein, 1:1 binding model; read-out: KRAS KD
GDP-bound KRAS wild-type protein, sequence (P01116 whole entry): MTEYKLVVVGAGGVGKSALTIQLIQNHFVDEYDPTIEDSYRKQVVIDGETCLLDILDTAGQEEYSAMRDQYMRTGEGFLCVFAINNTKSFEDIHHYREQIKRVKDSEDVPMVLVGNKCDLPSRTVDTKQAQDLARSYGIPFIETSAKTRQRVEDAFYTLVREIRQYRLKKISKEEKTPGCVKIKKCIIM

[2] = target: GDP-bound HRAS wild-type protein (Homo sapiens, UniProt P01112); assay: Binding to HRAS by surface plasmon resonance (SPR), Single Cycle Kinetics; settings: SPR, GDP-bound HRAS wild-type protein vs GDP-bound KRAS wild-type protein
GDP-bound HRAS wild-type protein, sequence (P01112 whole entry): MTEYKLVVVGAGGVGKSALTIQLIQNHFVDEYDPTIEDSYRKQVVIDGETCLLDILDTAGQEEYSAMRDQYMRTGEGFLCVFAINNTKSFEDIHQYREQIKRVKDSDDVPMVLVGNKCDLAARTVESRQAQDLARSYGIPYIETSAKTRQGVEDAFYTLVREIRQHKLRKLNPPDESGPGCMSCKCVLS

[3] = target: GDP-bound NRAS wild-type protein (Homo sapiens, UniProt P01111); assay: Binding to NRAS by surface plasmon resonance (SPR), Single Cycle Kinetics; settings: SPR, GDP-bound NRAS wild-type protein vs GDP-bound KRAS wild-type protein
GDP-bound NRAS wild-type protein, sequence (P01111 whole entry): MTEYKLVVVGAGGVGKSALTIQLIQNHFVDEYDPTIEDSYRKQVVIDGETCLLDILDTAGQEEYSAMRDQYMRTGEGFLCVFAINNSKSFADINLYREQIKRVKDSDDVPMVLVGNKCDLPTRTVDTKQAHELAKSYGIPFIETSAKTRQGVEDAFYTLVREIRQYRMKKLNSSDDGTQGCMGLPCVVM

## CCCN1C(=O)CN(C)C(=O)CN(CC)C(=O)[C@H]([C@@H](C)CC)NC(=O)[C@H](CC(C)C)N(C)C(=O)C[C@@H](C(=O)N2CCOCC2)N(C)C(=O)[C@H](C2CCCC2)N(C)C(=O)C2(CCCC2)NC(=O)CN(C)C(=O)[C@H](CCc2ccc(C(F)(F)F)c(Cl)c2)NC(=O)CN(C)C(=O)[C@@H]1Cc1ccc(C(F)(F)F)cc1 [PP0300] ([NMeL]I[NEtG][Sar][NPrPhe(4-CF3)][Sar][hPhe(3-Cl-4-CF3)][Sar][Ac5c][NMeGly(cPent)][NMeD]-Morpholide; lactam N-11)
[1]
  Kd: 1.4 nM
[2]
  HRAS/KRAS (ratio of KD value for HRAS to KD value for KRAS): C (A compound having a KD ratio of 0.1 or more and less than 3 is denoted as C)
[3]
  NRAS/KRAS (ratio of KD value for NRAS to KD value for KRAS): B (a compound having 3 or more and less than 10 is denoted as B)

## CCCN1CC(=O)NC2(CCCC2)C(=O)N(C)[C@@H](C2CCCC2)C(=O)N(C)[C@H](C(=O)N2CCOCC2)CC(=O)N(C)[C@@H](CC(C)C)C(=O)N[C@@H]([C@@H](C)CC)C(=O)N(CC)CC(=O)N(C)CC(=O)N(CCC)[C@@H](Cc2ccc(C(F)(F)F)cc2)C(=O)N(C)CC(=O)N[C@@H](CCc2ccc(C(F)(F)F)c(Cl)c2)C1=O [PP0301] ([NMeL]I[NEtG][Sar][NPrPhe(4-CF3)][Sar][hPhe(3-Cl-4-CF3)][NPrGly][Ac5c][NMeGly(cPent)][NMeD]-Morpholide; lactam N-11)
[1]
  Kd: 4.8 nM
[2]
  HRAS/KRAS (ratio of KD value for HRAS to KD value for KRAS): C (A compound having a KD ratio of 0.1 or more and less than 3 is denoted as C)
[3]
  NRAS/KRAS (ratio of KD value for NRAS to KD value for KRAS): B (a compound having 3 or more and less than 10 is denoted as B)

## CCCN1C(=O)CN(C)C(=O)[C@@H]2CCN2C(=O)[C@H](C2CCC2)NC(=O)[C@H](CC(C)C)N(C)C(=O)C[C@@H](C(=O)N2CCOCC2)N(C)C(=O)[C@H](C2CCCC2)N(C)C(=O)C2(CCCC2)NC(=O)[C@@H]2CCCN2C(=O)[C@H](CCc2ccc(C(F)(F)F)c(Cl)c2)NC(=O)CN(C)C(=O)[C@@H]1Cc1ccc(C(F)(F)F)cc1 [PP0305] ([NMeL][Gly(cBu)][Aze][Sar][NPrPhe(4-CF3)][Sar][hPhe(3-Cl-4-CF3)]P[Ac5c][NMeGly(cPent)][NMeD]-Morpholide; lactam N-11)
[1]
  Kd: 0.96 nM
[2]
  HRAS/KRAS (ratio of KD value for HRAS to KD value for KRAS): C (A compound having a KD ratio of 0.1 or more and less than 3 is denoted as C)
[3]
  NRAS/KRAS (ratio of KD value for NRAS to KD value for KRAS): B (a compound having 3 or more and less than 10 is denoted as B)

## CCCN1C(=O)CN(C)C(=O)[C@@H]2CCN2C(=O)[C@H]([C@@H](C)CC)NC(=O)[C@H](CC(C)C)N(C)C(=O)C[C@@H](C(=O)N2CCOCC2)N(C)C(=O)[C@H](C2CCCC2)N(C)C(=O)C2(CCCC2)NC(=O)[C@@H]2C[C@@H](OCC)CN2C(=O)[C@H](CCc2ccc(C(F)(F)F)c(Cl)c2)NC(=O)CN(C)C(=O)[C@@H]1Cc1ccc(C(F)(F)F)cc1 [PP0310] ([NMeL]I[Aze][Sar][NPrPhe(4-CF3)][Sar][hPhe(3-Cl-4-CF3)][Hyp](Et)[Ac5c][NMeGly(cPent)][NMeD]-Morpholide; lactam N-11)
[1]
  Kd: 0.45 nM
[2]
  HRAS/KRAS (ratio of KD value for HRAS to KD value for KRAS): C (A compound having a KD ratio of 0.1 or more and less than 3 is denoted as C)
[3]
  NRAS/KRAS (ratio of KD value for NRAS to KD value for KRAS): B (a compound having 3 or more and less than 10 is denoted as B)

## CCCN1C(=O)CN(C)C(=O)[C@@H]2CCN2C(=O)[C@H]([C@@H](C)CC)NC(=O)[C@H](CC(C)C)N(C)C(=O)C[C@@H](C(=O)N2CCOCC2)N(C)C(=O)[C@H](C2CCCC2)N(C)C(=O)C2(CCCC2)NC(=O)[C@@H]2CCCCN2C(=O)[C@H](CCc2ccc(C(F)(F)F)c(Cl)c2)NC(=O)CN(C)C(=O)[C@@H]1Cc1ccc(C(F)(F)F)cc1 [PP0311] ([NMeL]I[Aze][Sar][NPrPhe(4-CF3)][Sar][hPhe(3-Cl-4-CF3)][Pip][Ac5c][NMeGly(cPent)][NMeD]-Morpholide; lactam N-11)
[1]
  Kd: 3.3 nM
[2]
  HRAS/KRAS (ratio of KD value for HRAS to KD value for KRAS): B (a compound having 3 or more and less than 10 is denoted as B)
[3]
  NRAS/KRAS (ratio of KD value for NRAS to KD value for KRAS): B (a compound having 3 or more and less than 10 is denoted as B)

## CCCN1C(=O)CN(C)C(=O)[C@@H]2CCN2C(=O)[C@H]([C@@H](C)CC)NC(=O)[C@H](CC(C)C)N(C)C(=O)C[C@@H](C(=O)N2CCOCC2)N(C)C(=O)[C@H](C2CCCC2)N(C)C(=O)C2(CCCC2)NC(=O)[C@@H]2CC(F)(F)CCN2C(=O)[C@H](CCc2ccc(C(F)(F)F)c(Cl)c2)NC(=O)CN(C)C(=O)[C@@H]1Cc1ccc(C(F)(F)F)cc1 [PP0312] ([NMeL]I[Aze][Sar][NPrPhe(4-CF3)][Sar][hPhe(3-Cl-4-CF3)][Pip(4,4-F2)][Ac5c][NMeGly(cPent)][NMeD]-Morpholide; lactam N-11)
[1]
  Kd: 3.4 nM
[2]
  HRAS/KRAS (ratio of KD value for HRAS to KD value for KRAS): B (a compound having 3 or more and less than 10 is denoted as B)
[3]
  NRAS/KRAS (ratio of KD value for NRAS to KD value for KRAS): B (a compound having 3 or more and less than 10 is denoted as B)

## CCCN1C(=O)CN(C)C(=O)[C@@H]2CCN2C(=O)[C@H]([C@@H](C)CC)NC(=O)[C@H](CC(C)C)N(C)C(=O)C[C@@H](C(=O)N2CCOCC2)N(C)C(=O)[C@H](C2CCCC2)N(C)C(=O)C2(CCCC2)NC(=O)CN(C)C(=O)[C@H](CCc2ccc(C(F)(F)F)c(Cl)c2)NC(=O)CN(C)C(=O)[C@@H]1Cc1ccc(C(F)(F)F)cc1 [PP0314] ([NMeL]I[Aze][Sar][NPrPhe(4-CF3)][Sar][hPhe(3-Cl-4-CF3)][Sar][Ac5c][NMeGly(cPent)][NMeD]-Morpholide; lactam N-11)
[1]
  Kd: 1.6 nM
[2]
  HRAS/KRAS (ratio of KD value for HRAS to KD value for KRAS): C (A compound having a KD ratio of 0.1 or more and less than 3 is denoted as C)
[3]
  NRAS/KRAS (ratio of KD value for NRAS to KD value for KRAS): B (a compound having 3 or more and less than 10 is denoted as B)

## CCCN1CC(=O)NC2(CCCC2)C(=O)N(C)[C@@H](C2CCCC2)C(=O)N(C)[C@H](C(=O)N2CCOCC2)CC(=O)N(C)[C@@H](CC(C)C)C(=O)N[C@@H]([C@@H](C)CC)C(=O)N2CC[C@H]2C(=O)N(C)CC(=O)N(CCC)[C@@H](Cc2ccc(C(F)(F)F)cc2)C(=O)N(C)CC(=O)N[C@@H](CCc2ccc(C(F)(F)F)c(Cl)c2)C1=O [PP0315] ([NMeL]I[Aze][Sar][NPrPhe(4-CF3)][Sar][hPhe(3-Cl-4-CF3)][NPrGly][Ac5c][NMeGly(cPent)][NMeD]-Morpholide; lactam N-11)
[1]
  Kd: 3.8 nM
[2]
  HRAS/KRAS (ratio of KD value for HRAS to KD value for KRAS): B (a compound having 3 or more and less than 10 is denoted as B)
[3]
  NRAS/KRAS (ratio of KD value for NRAS to KD value for KRAS): B (a compound having 3 or more and less than 10 is denoted as B)

## CC[C@H](C)[C@@H]1NC(=O)[C@H](CC(C)C)N(C)C(=O)C[C@@H](C(=O)N2CCOCC2)N(C)C(=O)[C@H](C2CCCC2)N(C)C(=O)C2(CCCC2)NC(=O)[C@@H]2CCCN2C(=O)[C@H](CCc2ccc(C(F)(F)F)c(Cl)c2)NC(=O)CN(C)C(=O)[C@H](Cc2ccc(C)cc2)N2CCCC[C@@H](C2=O)N(C)C(=O)CN(C)C1=O [PP0316]
[1]
  Kd: 0.054 nM
[2]
  HRAS/KRAS (ratio of KD value for HRAS to KD value for KRAS): B (a compound having 3 or more and less than 10 is denoted as B)
[3]
  NRAS/KRAS (ratio of KD value for NRAS to KD value for KRAS): C (A compound having a KD ratio of 0.1 or more and less than 3 is denoted as C)

## CC[C@H](C)[C@@H]1NC(=O)[C@H](CC(C)C)N(C)C(=O)C[C@@H](C(=O)N2CCOCC2)N(C)C(=O)[C@H](C2CCCC2)N(C)C(=O)C2(CCCC2)NC(=O)[C@@H]2CCCN2C(=O)[C@H](CCc2ccc(C(F)(F)F)c(Cl)c2)NC(=O)CN(C)C(=O)[C@H](Cc2ccc(C)cc2)N2CCCCC[C@@H](C2=O)N(C)C(=O)CN(C)C1=O [PP0317]
[1]
  Kd: 0.86 nM
[2]
  HRAS/KRAS (ratio of KD value for HRAS to KD value for KRAS): B (a compound having 3 or more and less than 10 is denoted as B)
[3]
  NRAS/KRAS (ratio of KD value for NRAS to KD value for KRAS): B (a compound having 3 or more and less than 10 is denoted as B)

## CC[C@H](C)[C@@H]1NC(=O)[C@H](CC(C)C)N(C)C(=O)C[C@@H](C(=O)N2CCOCC2)N(C)C(=O)[C@H](C2CCCC2)N(C)C(=O)C2(CCCC2)NC(=O)[C@@H]2CCCN2C(=O)[C@H](CCc2ccc(C(F)(F)F)c(Cl)c2)NC(=O)CN(C)C(=O)[C@H](Cc2ccc(C(F)(F)F)cc2)N2CCCC[C@@H](C2=O)N(C)C(=O)CN(C)C1=O [PP0318]
[1]
  Kd: 0.034 nM
[2]
  HRAS/KRAS (ratio of KD value for HRAS to KD value for KRAS): B (a compound having 3 or more and less than 10 is denoted as B)
[3]
  NRAS/KRAS (ratio of KD value for NRAS to KD value for KRAS): B (a compound having 3 or more and less than 10 is denoted as B)

## CCCN1C(=O)CN(C)C(=O)CN(C)C(=O)[C@H]([C@@H](C)CC)NC(=O)[C@H](CC(C)C)N(C)C(=O)C[C@@H](C(=O)N2CCOCC2)NC(=O)[C@H](C2CCCC2)N(C)C(=O)C2(CCC2)NC(=O)[C@@H]2CCCN2C(=O)[C@H](CCc2ccc(C(F)(F)F)c(Cl)c2)NC(=O)CN(C)C(=O)[C@@H]1Cc1ccc(C(F)(F)F)cc1 [PP0320] ([NMeL]I[Sar][Sar][NPrPhe(4-CF3)][Sar][hPhe(3-Cl-4-CF3)]P[Ac4c][NMeGly(cPent)]D-Morpholide; lactam N-11)
[1]
  Kd: 0.9 nM
[2]
  HRAS/KRAS (ratio of KD value for HRAS to KD value for KRAS): B (a compound having 3 or more and less than 10 is denoted as B)
[3]
  NRAS/KRAS (ratio of KD value for NRAS to KD value for KRAS): B (a compound having 3 or more and less than 10 is denoted as B)
